Experiment [1] deals with Freund's Complete Adjuvant induced paw edema. Put plainly: Freund's Complete Adjuvant induced arthritis model, inhibition of paw edema. It is filed as in vivo. The settings on record: 10 mg/kg body weight daily (positive control); FCA-induced Sprague Dawley rats; vs CMC control.
In the next experiment the target is 5-lipoxygenase (5-LOX). The note with it: read-out: IC50 for the inhibition of 5-LOX; background, prior art; cited from earlier work.

As to `C[C@]12C=CC(=O)C=C1CC[C@@H]1[C@@H]2[C@@H](O)C[C@@]2(C)[C@H]1CC[C@]2(O)C(=O)CO` [Prednisolone], in experiment [1], the “Reduction in Paw edema” value was found to be 46%.

The IC50 is the concentration that gives 50% inhibition. Turning to “3-O-Acetyl-11-keto-β-Boswellic acid [AKBA]”, the half-maximal inhibitory concentration (IC50) on 5-lipoxygenase (5-LOX) was 1500 nM.

The values are drawn from US8551496B2, “Boswellia low polar gum resin extract and its synergistic compositions” (priority 2010, dated 2013).
